From patent US11180462B2, “Microbiocidal oxadiazole derivatives” (SYNGENTA PARTICIPATIONS AG, priority 2015, dated 2021)

Assays:
Phakopsora Pachyrhizi = assay: Fungicidal activity against Phakopsora pachyrhizi / soybean / leaf disc preventative (Asian soybean rust); assay type: in vivo; conditions: foliar, 200 ppm in the applied formulation, soybean leaf disks, compared to untreated control leaf disks, read-out: disease control
Summary of the method: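 Scored 12 to 14 days post-application as percent control relative to untreated check discs, rust spores were sprayed under the disc one day after compound treatment. Incubation: 20°C, 75% rh, first 24–36 h in darkness, then 12 h daily light; discs kept on water agar.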

[1] = tested on: Puccinia recondita f. Sp. Tritici; assay: Fungicidal activity against Puccinia recondita f. sp. tritici / wheat / leaf disc preventative (brown rust); assay type: in vivo; conditions: foliar, 200 ppm in the applied formulation, wheat leaf segments, preventative, compared to untreated control leaf disks, read-out: disease control
Summary of the method: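 200 ppm spray on wheat cv. Kanzler leaf segments; spore inoculation +1 day; 19° C., 75% rh, 12 h/12 h light cycle; single rating of % control vs untreated at 7 to 9 days.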

[2] = tested on: Puccinia recondita f. Sp. Tritici; assay: Fungicidal activity against Puccinia recondita f. sp. tritici / wheat / leaf disc curative (brown rust); assay type: in vivo; conditions: foliar, 24 h, 200 ppm in the applied formulation, wheat leaf segments, curative (applied 1 day after inoculation), compared to untreated control leaf disks, read-out: disease control
Summary of the method: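 Curative test on wheat leaf segments (cv. Kanzler) on agar, inoculated with spore suspension and held dark at 19° C, 75% RH; formulated compound in water applied 1 day after inoculation. Incubated at 19° C, 75% RH, 12 h light/12 h dark; percent disease control versus untreated scored 6 to 8 days after application.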

[3] = tested on: Glomerella lagenarium (Colletotrichum lagenarium); assay: Fungicidal activity against Glomerella lagenarium (Colletotrichum lagenarium) liquid culture / cucumber / preventative (anthracnose); assay type: cell-based; conditions: Colletotrichum orbiculare; 20 ppm in the applied formulation; liquid culture (PDB), growth inhibition measured photometrically after 3 to 4 days; compared to untreated control; read-out: disease control
Summary of the method: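 Percent activity against the untreated check was derived from photometric growth measurements made 2 to 7 days after conidia in potato dextrose broth were combined with compound at 20 ppm. Cultures were kept dark at 24 °C and 96% humidity.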

CCCN(Cc1ccc(-c2noc(C(F)(F)F)n2)cc1)C(=O)N(C)OC [Compound 3.30, 1-methoxy-1-methyl-3-propyl-3-[[4-[5-(trifluoromethyl)-1,2,4-oxadiazol-3-yl]phenyl]methyl]urea]
≥ 80%: pest or weed control at 200 ppm (Phakopsora Pachyrhizi) | pest or weed control at 200 ppm [1] | pest or weed control at 200 ppm [2] | inhibition of growth at 20 ppm [3]

O=C(C1CC1(F)F)N(Cc1ccc(-c2noc(C(F)(F)F)n2)cc1)C1COC1 (centres unmarked) [Compound 1.739, 2,2-difluoro-N-(oxetan-3-yl)-N-[[4-[5-(trifluoromethyl)-1,2,4-oxadiazol-3-yl]phenyl]methyl]-cyclopropane-carboxamide]
≥ 80%: pest or weed control at 200 ppm (Phakopsora Pachyrhizi) | pest or weed control at 200 ppm [1] | pest or weed control at 200 ppm [2] | inhibition of growth at 20 ppm [3]

CON(Cc1ccc(-c2noc(C(F)(F)F)n2)cn1)C(=O)C1CC1 [Compound 1.570, N-methoxy-N-[[5-[5-(trifluoromethyl)-1,2,4-oxadiazol-3-yl]-2-pyridyl]methyl]cyclopropanecarboxamide]
≥ 80%: pest or weed control at 200 ppm (Phakopsora Pachyrhizi) | pest or weed control at 200 ppm [1] | pest or weed control at 200 ppm [2] | inhibition of growth at 20 ppm [3]

CCCON(Cc1ccc(-c2noc(C(F)(F)F)n2)cc1)C(=O)C1CCCN1C(C)=O (centres unmarked) [Compound 1.314, 1-acetyl-N-propoxy-N-[[4-[5-(trifluoromethyl)-1,2,4-oxadiazol-3-yl]phenyl]methyl]-pyrrolidine-2-carboxamide]
≥ 80%: pest or weed control at 200 ppm (Phakopsora Pachyrhizi) | pest or weed control at 200 ppm [1] | pest or weed control at 200 ppm [2] | inhibition of growth at 20 ppm [3]

CCCC(=O)N(CC)Cc1ccc(-c2noc(C(F)(F)F)n2)cc1 [Compound 1.505, N-ethyl-N-[[4-[5-(trifluoromethyl)-1,2,4-oxadiazol-3-yl]phenyl]methyl]-butanamide]
≥ 80%: pest or weed control at 200 ppm (Phakopsora Pachyrhizi) | pest or weed control at 200 ppm [1] | pest or weed control at 200 ppm [2] | inhibition of growth at 20 ppm [3]

CCN(Cc1ccc(-c2noc(C(F)(F)F)n2)cc1)C(=O)COC [Compound 1.499, N-ethyl-2-methoxy-N-[[4-[5-(trifluoromethyl)-1,2,4-oxadiazol-3-yl]phenyl]methyl]-acetamide]
≥ 80%: pest or weed control at 200 ppm (Phakopsora Pachyrhizi) | pest or weed control at 200 ppm [1] | pest or weed control at 200 ppm [2] | inhibition of growth at 20 ppm [3]

CC(C)C(=O)N(Cc1ccc(-c2noc(C(F)(F)F)n2)cc1)C(C)C [Compound 1.670, N-isopropyl-2-methyl-N-[[4-[5-(trifluoromethyl)-1,2,4-oxadiazol-3-yl]phenyl]methyl]-propanamide]
≥ 80%: pest or weed control at 200 ppm (Phakopsora Pachyrhizi) | pest or weed control at 200 ppm [1] | pest or weed control at 200 ppm [2] | inhibition of growth at 20 ppm [3]

CC1CC1C(=O)N(C)Cc1ccc(-c2noc(C(F)(F)F)n2)cc1 (centres unmarked) [Compound 1.520, N,2-dimethyl-N-[[4-[5-(trifluoromethyl)-1,2,4-oxadiazol-3-yl]phenyl]methyl]-cyclopropane-carboxamide]
≥ 80%: pest or weed control at 200 ppm (Phakopsora Pachyrhizi) | pest or weed control at 200 ppm [1] | pest or weed control at 200 ppm [2] | inhibition of growth at 20 ppm [3]

COCCN(Cc1ccc(-c2noc(C(F)(F)F)n2)cc1)C(=O)C(C)C [Compound 1.325, N-(2-methoxyethyl)-2-methyl-N-[[4-[5-(trifluoromethyl)-1,2,4-oxadiazol-3-yl]phenyl]methyl]-propanamide]
≥ 80%: pest or weed control at 200 ppm (Phakopsora Pachyrhizi) | pest or weed control at 200 ppm [1] | pest or weed control at 200 ppm [2] | inhibition of growth at 20 ppm [3]

CCC(C)N(Cc1ccc(-c2noc(C(F)(F)F)n2)cc1)C(=O)CC(F)(F)F (centres unmarked) [Compound 1.404]
≥ 80%: pest or weed control at 200 ppm (Phakopsora Pachyrhizi) | pest or weed control at 200 ppm [1] | pest or weed control at 200 ppm [2] | inhibition of growth at 20 ppm [3]

C#CCN(Cc1ccc(-c2noc(C(F)(F)F)n2)cc1)C(=O)C1CC1(F)F (centres unmarked) [Compound 1.157, 2,2-difluoro-N-prop-2-ynyl-N-[[4-[5-(trifluoromethyl)-1,2,4-oxadiazol-3-yl]phenyl]methyl]-cyclopropane-carboxamide]
≥ 80%: pest or weed control at 200 ppm (Phakopsora Pachyrhizi) | pest or weed control at 200 ppm [1] | pest or weed control at 200 ppm [2] | inhibition of growth at 20 ppm [3]

O=C(C1CC1(F)F)N(Cc1ccc(-c2noc(C(F)(F)F)n2)cc1)CC(F)(F)F (centres unmarked) [Compound 1.690, 2,2-difluoro-N-(2,2,2-trifluoroethyl)-N-[[4-[5-(trifluoromethyl)-1,2,4-oxadiazol-3-yl]phenyl]methyl]-cyclopropane-carboxamide]
≥ 80%: pest or weed control at 200 ppm (Phakopsora Pachyrhizi) | pest or weed control at 200 ppm [1] | pest or weed control at 200 ppm [2] | inhibition of growth at 20 ppm [3]

O=C(C1CCC1)N(CCO)Cc1ccc(-c2noc(C(F)(F)F)n2)cc1 [Compound 1.714, N-(2-hydroxyethyl)-N-[[4-[5-(trifluoromethyl)-1,2,4-oxadiazol-3-yl]phenyl]methyl]-cyclobutane-carboxamide]
≥ 80%: pest or weed control at 200 ppm (Phakopsora Pachyrhizi) | pest or weed control at 200 ppm [1] | pest or weed control at 200 ppm [2] | inhibition of growth at 20 ppm [3]

CN(C(=O)C1CC1)C(C#N)c1ccc(-c2noc(C(F)(F)F)n2)cc1 (centres unmarked) [Compound 1.612, N-[cyano-[4-[5-(trifluoromethyl)-1,2,4-oxadiazol-3-yl]phenyl]methyl)-N-methyl-cyclopropane-carboxamide]
≥ 80%: pest or weed control at 200 ppm (Phakopsora Pachyrhizi) | pest or weed control at 200 ppm [1] | pest or weed control at 200 ppm [2] | inhibition of growth at 20 ppm [3]

COCCCC(=O)N(Cc1ccc(-c2noc(C(F)(F)F)n2)cc1)C(C)C [Compound 1.681, N-isopropyl-4-methoxy-N-[[4-[5-(trifluoromethyl)-1,2,4-oxadiazol-3-yl]phenyl]methyl]-butanamide]
≥ 80%: pest or weed control at 200 ppm (Phakopsora Pachyrhizi) | pest or weed control at 200 ppm [1] | pest or weed control at 200 ppm [2] | inhibition of growth at 20 ppm [3]

COCCCC(=O)N(Cc1ccc(-c2noc(C(F)(F)F)n2)cc1)OC [Compound 1.59, N,4-dimethoxy-N-[[4-(5-(trifluoromethyl)-1,2,4-oxadiazol-3-yl]phenyl]methyl]-butanamide]
≥ 80%: pest or weed control at 200 ppm (Phakopsora Pachyrhizi) | pest or weed control at 200 ppm [1] | pest or weed control at 200 ppm [2] | inhibition of growth at 20 ppm [3]

CCCC(=O)N(C)Cc1ccc(-c2noc(C(F)(F)F)n2)cc1 [Compound 1.524, N-methyl-N-[[4-[5-(trifluoromethyl)-1,2,4-oxadiazol-3-yl]phenyl]methyl]-butanamide]
≥ 80%: pest or weed control at 200 ppm (Phakopsora Pachyrhizi) | pest or weed control at 200 ppm [1] | pest or weed control at 200 ppm [2] | inhibition of growth at 20 ppm [3]

CC1(C(=O)N(O)Cc2ccc(-c3noc(C(F)(F)F)n3)cc2)CC1 [Compound 1.764, N-hydroxy-1-methyl-N-[[4-[5-(trifluoromethyl)-1,2,4-oxadiazol-3-yl]phenyl]methyl]-cyclopropane-carboxamide]
≥ 80%: pest or weed control at 200 ppm (Phakopsora Pachyrhizi) | pest or weed control at 200 ppm [1] | pest or weed control at 200 ppm [2] | inhibition of growth at 20 ppm [3]

COCCCC(=O)N(CCO)Cc1ccc(-c2noc(C(F)(F)F)n2)cc1 [Compound 1.724, N-(2-hydroxyethyl)-4-methoxy-N-[[4-[5-(trifluoromethyl)-1,2,4-oxadiazol-3-yl]phenyl]methyl]-butanamide]
≥ 80%: pest or weed control at 200 ppm (Phakopsora Pachyrhizi) | pest or weed control at 200 ppm [1] | pest or weed control at 200 ppm [2] | inhibition of growth at 20 ppm [3]

CCC(C)N(Cc1ccc(-c2noc(C(F)(F)F)n2)cc1)C(=O)COC (centres unmarked) [Compound 1.372, 2-methoxy-N-sec-bulyl-N-[[4-[5-(trifluoromethyl)-1,2,4-oxadiazol-3-yl]phenyl]methyl]-acetamide]
≥ 80%: pest or weed control at 200 ppm (Phakopsora Pachyrhizi) | pest or weed control at 200 ppm [1] | pest or weed control at 200 ppm [2] | inhibition of growth at 20 ppm [3]

CCNC(=O)N(Cc1ccc(-c2noc(C(F)(F)F)n2)cc1)OC [Compound 3.12, 3-ethyl-1-methoxy-1-[[4-[5-(trifluoromethyl)-1,2,4-oxadiazol-3-yl]phenyl]methyl]urea]
≥ 80%: pest or weed control at 200 ppm (Phakopsora Pachyrhizi) | pest or weed control at 200 ppm [1] | pest or weed control at 200 ppm [2] | inhibition of growth at 20 ppm [3]

N#CC1(C(=O)N(Cc2ccc(-c3noc(C(F)(F)F)n3)cc2)CC(F)(F)F)CC1 [Compound 1.702, 1-cyano-N-(2,2,2-trrfluoroethyl)-N-[[4-[5-(trifluoromethyl)-1,2,4-oxadiazol-3-yl]phenyl]methyl]-cyclopropane-carboxamide]
≥ 80%: pest or weed control at 200 ppm (Phakopsora Pachyrhizi) | pest or weed control at 200 ppm [1] | pest or weed control at 200 ppm [2] | inhibition of growth at 20 ppm [3]

C#CCN(Cc1ccc(-c2noc(C(F)(F)F)n2)cc1)C(=O)C1(C)COC1 [Compound 1.192, 3-methyl-N-prop-2-ynyl-N-[[4-[5-(trifluoromethyl)-1,2,4-oxadiazol-3-yl]phenyl]methyl]-oxetane-3-carboxamide]
≥ 80%: pest or weed control at 200 ppm (Phakopsora Pachyrhizi) | pest or weed control at 200 ppm [1] | pest or weed control at 200 ppm [2] | inhibition of growth at 20 ppm [3]
